{"source": "patent US8796288B2", "about": "“Anhydrous crystalline forms of N-[1-(2-ethoxyethyl)-5-(N-ethyl-N-methylamino)-7-(4-methylpyridin-2-yl-amino)-1H-pyrazolo[4,3-d]pyrimidine-3-carbonyl]methanesulfonamide” (Pfizer Inc., priority 2005, dated 2014)", "key": {"[1]": {"assay": "Stability of Form B and Form C (bridging slurry studies, PXRD analysis)", "type": "physicochemical", "protocol": "Bridging studies were performed in the following solvent systems to determine the relative thermodynamic stabilities of Form B and Form C: (1) THF/H2O (50:50 volume/volume), (2) methyl ethyl ketone (“MEK”), (3) methanol, and (4) methanol/dichloromethane (DCM) (50:50 volume/volume). The MEK study was performed at room temperature while the studies with the other three solvent systems were performed at both 40° C. and 60° C. In each study a suspension of Form B in the appropriate solvent system was prepared. Approximately 10 mg of Form C was then added to each suspension. The suspensions were then allowed to slurry at the appropriate temperature for a specific period of time. The solvent system, temperature of the solvent system, and period of time over which the suspension was allowed to slurry are set forth below for each study: • (1) Study A: Slurried for 3 days in MEK at room temperature; • (2) Study B: Slurried for 3 days in THF/H2O (50:50) at 40° C.; • (3) Study C: Slurried for 3 days in THF/H2O (50:50) at 60° C.; • (4) Study D: Slurried for 21 days in Methanol at 40° C.; • (5) Study E: Slurried for 21 days in Methanol at 60° C.; • (6) Study F: Slurried for 5 days in Methanol/DCM at 40° C.; and • (7) Study G: Slurried for 21 days in Methanol/DCM at 60° C.\nAt the end of the specified time period, a sample was removed from each slurry and analyzed by PXRD. […]"}, "[2]": {"assay": "Stability of Form A and Form B (slurry conversion in methanol with PXRD, DSC comparison)", "type": "physicochemical", "experimental": "Form A, Form B and Form C were each analyzed using differential scanning calorimetry (DSC). A TA Instruments Q1000 differential scanning calorimeter was used to perform each analysis. Each sample was heated from 25 to 300° C. at 20° C. per minute in an aluminium pan with the lid laid on top, with a nitrogen purge gas. The temperature of the melting endothermic peak was reported as the melting point.\nApproximately 25 mg of Form A (see Example 3) was slurried at room temperature with 1 ml of methanol. […] A small sample was removed from the slurry.\nThe thermodynamically stabilities of Form A and Form B were compared as described below. First, approximately 25 mg of Form A was slurried in approximately 1 ml of methanol. […] A small sample was removed from the slurry."}}, "note": "“Also recorded” adds a separate entry of the source.", "data": [{"smiles": "CCOCCn1nc(C(=O)NS(C)(=O)=O)c2nc(N(C)CC)nc(Nc3cc(C)ccn3)c21", "note": "[Form C, N-[1-(2-ethoxyethyl)-5-(N-ethyl-N-methylamino)-7-(4-methylpyridin-2-yl-amino)-1H-pyrazolo[4,3-d]pyrimidine-3-carbonyl]methanesulfonamide]", "values": [{"measurement": "relative thermodynamic stability of Form B and Form C below the crossover point", "setting": "[1]; temperatures below the crossover point (including ambient)", "result": "more thermodynamically stable than Form B; also recorded: most thermodynamically stable form"}]}, {"smiles": "CCOCCn1nc(C(=O)NS(C)(=O)=O)c2nc(N(C)CC)nc(Nc3cc(C)ccn3)c21", "note": "[Form A, N-[1-(2-ethoxyethyl)-5-(N-ethyl-N-methylamino)-7-(4-methylpyridin-2-yl-amino)-1H-pyrazolo[4,3-d]pyrimidine-3-carbonyl]methanesulfonamide]", "values": [{"measurement": "crystalline form found by PXRD after slurrying", "setting": "[2]; approximately 25 mg slurried in approximately 1 ml of methanol", "result": "Form B"}]}, {"smiles": "CCOCCn1nc(C(=O)NS(C)(=O)=O)c2nc(N(C)CC)nc(Nc3cc(C)ccn3)c21", "note": "[Form B, N-[1-(2-ethoxyethyl)-5-(N-ethyl-N-methylamino)-7-(4-methylpyridin-2-yl-amino)-1H-pyrazolo[4,3-d]pyrimidine-3-carbonyl]methanesulfonamide]", "values": [{"measurement": "relative thermodynamic stability of Form A and Form B", "setting": "[2]; from slurry conversion analysis and DSC analysis, ambient as well as elevated temperatures", "result": "more thermodynamically stable than Form A"}, {"measurement": "relative thermodynamic stability of Form B and Form C above the crossover point", "setting": "[1]; temperatures above the crossover point", "result": "more thermodynamically stable than Form C; also recorded: most thermodynamically stable form"}]}]}
